The record followed here is PubChem BioAssay (NCI).

Structures are written as SMILES.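 Compound exposure: 48 hours, 5 concentrations, 96-well plates. The concentration for 50% growth inhibition is given as GI50. TGI denotes the concentration required for complete inhibition of growth.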

For one assay, the system named is HOP-18 NSCLC. Description: DTP human tumour cell line panel, 48 h.
For orientation: TGI means the concentration at which net growth stops. High values mean lower sensitivity of the cells, low ones greater sensitivity of the cells. For the compound `O=c1cc(-c2ccccc2)oc2cc(OCCCOc3ccc4c(=O)cc(-c5ccccc5)oc4c3)ccc12`, the TGI was over 100 µM.
Same read-out and setting: the result for `COc1cc2c(c(OC)c1OC)-c1ccc(OC)c(=O)cc1C(NC(=O)c1ccc(N=[N+]=[N-])cc1)CC2` (stereo not given) reads over 100 µM.
On the same count and under the same terms, the result for `Clc1ccc(C(c2ccc(Cl)cc2)c2ccccn2)cc1` reads 46.6 µM; that for `CC(C)=Cc1cc(C(=O)Nc2ccc(Cl)c(Cl)c2)nc(N)n1`, over 100 µM.
In the case of `Cn1cnc([N+](=O)[O-])c1Sc1nc2ccccc2[nH]1`, the TGI was over 100 µM.
The same measure, in the same setting: the result for `CCCCCCN(CCCCCC)C(=O)Cc1c2n(c3ccccc13)Cc1ccccc1-2` reads over 100 µM; that for `CCCCCCCCC/C=C1\CCC(CN2CCOCC2)C1=O` (stereo not given), 10.7 µM; that for `CC(=O)OC1=CC(n2cc(F)c(=O)[nH]c2=O)OC(C)C1=O` (stereo not given), over 100 µM.
Still for that read-out and setting: as for `CCOC(=O)NC(=O)c1cn(CCCO)c(=O)[nH]c1=O`, the figure is over 100 µM.
Still for that read-out and setting: as for `CN(C)c1nc(=Nc2ccc(N=c3nc(N(C)C)ss3)cc2)ss1`, the figure is over 100 µM; as for `CSc1nc(NC2OCC(OC(C)=O)C(OC(C)=O)C2OC(C)=O)c(N=CC=Nc2c(NC3OCC(OC(C)=O)C(OC(C)=O)C3OC(C)=O)nc(SC)[nH]c2=O)c(=O)[nH]1` (stereo not given), over 100 µM; as for `CCc1cc(Cc2cc(CC)c(NC(=O)C(=O)Cc3ccccn3)c(CC)c2Cl)c(Cl)c(CC)c1NC(=O)C(=O)Cc1ccccn1`, over 100 µM.
`OCc1ccc(-c2ccc(-c3ccc(CO)s3)o2)s1` yielded a TGI of 32.6 µM.
The same measure, in the same setting: the result for `c1ccc(COc2cccc3ccc[n+](Cc4ccccc4)c23)cc1` reads 15.4 µM; that for `CC1=CC(O)(c2ccc(-c3ccccc3Cl)cc2)OC1=O` (stereo not given), over 100 µM; that for `CC(C)(C)OC(=O)N[C@H]1CC2(C=C(Cl)C(=O)C(Cl)=C2)OC1=O`, 30.4 µM.
On the same count and under the same terms, as for `C/C(=N\NC(=S)NC(CCC(=O)O)C(=O)O)c1ccccn1` (stereo not given), the figure is over 100 µM; as for `Cc1ccc(NC(=O)c2cc3cc(N=Nc4ccccc4C(=O)O)ccc3oc2=O)cc1`, over 100 µM; as for `CC(=O)/C(=C\c1cccc([N+](=O)[O-])c1)C(=O)Nc1ccccc1C`, over 100 µM.
The same measure, in the same setting: as for `CCN1c2ccccc2C(C(SC)S(=O)(=O)c2ccc(C)cc2)c2c1[nH]c(=O)n(C)c2=O` (stereo not given), the figure is over 100 µM.

The test system of another assay is DLD-1 colon. Nature of the assay: DTP human tumour cell line panel, 48 h.
As for `O=c1cc(-c2ccccc2)oc2cc(OCCCOc3ccc4c(=O)cc(-c5ccccc5)oc4c3)ccc12`, the TGI is over 100 µM.
On the same count and under the same terms, as for `COc1cc2c(c(OC)c1OC)-c1ccc(OC)c(=O)cc1C(NC(=O)c1ccc(N=[N+]=[N-])cc1)CC2` (stereo not given), the figure is over 100 µM; as for `Clc1ccc(C(c2ccc(Cl)cc2)c2ccccn2)cc1`, 83.5 µM; as for `CC(C)=Cc1cc(C(=O)Nc2ccc(Cl)c(Cl)c2)nc(N)n1`, over 100 µM.
Same read-out and setting: as for `Cn1cnc([N+](=O)[O-])c1Sc1nc2ccccc2[nH]1`, the figure is 22.2 µM; as for `CCCCCCN(CCCCCC)C(=O)Cc1c2n(c3ccccc13)Cc1ccccc1-2`, over 100 µM; as for `CCCCCCCCC/C=C1\CCC(CN2CCOCC2)C1=O` (stereo not given), 3.9 µM.
On the same count and under the same terms, as for `CC(=O)OC1COC(n2ccc3cc(Br)c([N+](=O)[O-])cc32)C(OC(C)=O)C1OC(C)=O` (stereo not given), the figure is over 100 µM; as for `CC(=O)OC1=CC(n2cc(F)c(=O)[nH]c2=O)OC(C)C1=O` (stereo not given), over 100 µM.
Compound `CCOC(=O)NC(=O)c1cn(CCCO)c(=O)[nH]c1=O` yielded a TGI of over 100 µM.
On the same count and under the same terms, as for `CN(C)c1nc(=Nc2ccc(N=c3nc(N(C)C)ss3)cc2)ss1`, the figure is 30.2 µM; as for `CSc1nc(NC2OCC(OC(C)=O)C(OC(C)=O)C2OC(C)=O)c(N=CC=Nc2c(NC3OCC(OC(C)=O)C(OC(C)=O)C3OC(C)=O)nc(SC)[nH]c2=O)c(=O)[nH]1` (stereo not given), over 100 µM.
With `CCc1cc(Cc2cc(CC)c(NC(=O)C(=O)Cc3ccccn3)c(CC)c2Cl)c(Cl)c(CC)c1NC(=O)C(=O)Cc1ccccn1`, the TGI was over 100 µM.
Same read-out and setting: the result for `C[Si](C)(C)C1(Sc2ccccc2)SCCCS1` reads over 100 µM; that for `OCc1ccc(-c2ccc(-c3ccc(CO)s3)o2)s1`, over 73.4 µM; that for `c1ccc(COc2cccc3ccc[n+](Cc4ccccc4)c23)cc1`, over 100 µM.
The same measure, in the same setting: as for `O=S1(=O)OCCOS(=O)(=O)C1Br`, the figure is over 100 µM; as for `CCOC(=O)C(=C=C=C(c1ccccc1)c1ccccc1)C(=O)OCC`, 40.7 µM.
`CC1=CC(O)(c2ccc(-c3ccccc3Cl)cc2)OC1=O` (stereo not given) registered a TGI of over 100 µM.
The same measure, in the same setting: the result for `CC(C)(C)OC(=O)N[C@H]1CC2(C=C(Cl)C(=O)C(Cl)=C2)OC1=O` reads 13.4 µM.
With `C/C(=N\NC(=S)NC(CCC(=O)O)C(=O)O)c1ccccn1` (stereo not given), the TGI is over 100 µM.
The same measure, in the same setting: as for `C#CC1(O)CCC2C3CCc4cc(Oc5nc(F)nc(-c6c7ccccc7c7sc8ccccc8n67)n5)ccc4C3CC[C@@]21C` (stereo not given in full), the figure is over 100 µM; as for `Cc1ccc(NC(=O)c2cc3cc(N=Nc4ccccc4C(=O)O)ccc3oc2=O)cc1`, over 100 µM; as for `COc1ccc(S(=O)(=O)NNS(C)(=O)=O)cc1`, over 100 µM.
The GI50 is the concentration at which growth is held to half of that of the control. Consider `O=C(/C=C\c1ccc(Cl)c(Cl)c1)c1ccc(Cl)cc1Cl`, for which the GI50 was 12.6 µM and the TGI is 26.8 µM.
Compound `CC(=O)/C(=C\c1cccc([N+](=O)[O-])c1)C(=O)Nc1ccccc1C` gave a TGI of over 100 µM.
On the same count and under the same terms, the result for `CCN1c2ccccc2C(C(SC)S(=O)(=O)c2ccc(C)cc2)c2c1[nH]c(=O)n(C)c2=O` (stereo not given) reads over 100 µM.
The same measure, in the same setting: the result for `COC(OC)C(C)CC(=O)N(C)C` (stereo not given) reads over 100 µM.

The next assay relates to DMS 114 small cell lung. Description: DTP human tumour cell line panel, 48 h.
As for `O=c1cc(-c2ccccc2)oc2cc(OCCCOc3ccc4c(=O)cc(-c5ccccc5)oc4c3)ccc12`, the TGI was over 100 µM.
Turning to `COc1cc2c(c(OC)c1OC)-c1ccc(OC)c(=O)cc1C(NC(=O)c1ccc(N=[N+]=[N-])cc1)CC2` (stereo not given), the TGI worked out at 0.0656 µM.
Same read-out and setting: as for `Clc1ccc(C(c2ccc(Cl)cc2)c2ccccn2)cc1`, the figure is over 100 µM.
The same measure, in the same setting: the result for `CC(C)=Cc1cc(C(=O)Nc2ccc(Cl)c(Cl)c2)nc(N)n1` reads over 100 µM.
Take `Cn1cnc([N+](=O)[O-])c1Sc1nc2ccccc2[nH]1`: the TGI turned out to be 21.7 µM.
Turning to `CCCCCCN(CCCCCC)C(=O)Cc1c2n(c3ccccc13)Cc1ccccc1-2`, the TGI was 82 µM.
`CCCCCCCCC/C=C1\CCC(CN2CCOCC2)C1=O` (stereo not given) registered a TGI of 7.42 µM.
Still for that read-out and setting: the result for `CC(=O)OC1COC(n2ccc3cc(Br)c([N+](=O)[O-])cc32)C(OC(C)=O)C1OC(C)=O` (stereo not given) reads 94.1 µM.
The same measure, in the same setting: as for `CC(=O)OC1=CC(n2cc(F)c(=O)[nH]c2=O)OC(C)C1=O` (stereo not given), the figure is over 100 µM; as for `CCOC(=O)NC(=O)c1cn(CCCO)c(=O)[nH]c1=O`, over 100 µM.
On the same count and under the same terms, the result for `CN(C)c1nc(=Nc2ccc(N=c3nc(N(C)C)ss3)cc2)ss1` reads 38.1 µM; that for `CSc1nc(NC2OCC(OC(C)=O)C(OC(C)=O)C2OC(C)=O)c(N=CC=Nc2c(NC3OCC(OC(C)=O)C(OC(C)=O)C3OC(C)=O)nc(SC)[nH]c2=O)c(=O)[nH]1` (stereo not given), over 100 µM; that for `CCc1cc(Cc2cc(CC)c(NC(=O)C(=O)Cc3ccccn3)c(CC)c2Cl)c(Cl)c(CC)c1NC(=O)C(=O)Cc1ccccn1`, over 100 µM.
Regarding `C[Si](C)(C)C1(Sc2ccccc2)SCCCS1`, the TGI was over 100 µM.
As for `OCc1ccc(-c2ccc(-c3ccc(CO)s3)o2)s1`, the TGI was over 100 µM.
Compound `c1ccc(COc2cccc3ccc[n+](Cc4ccccc4)c23)cc1` registered a TGI of 14.6 µM.
Consider `O=S1(=O)OCCOS(=O)(=O)C1Br`, for which the TGI was over 100 µM.
The same measure, in the same setting: as for `CCOC(=O)C(=C=C=C(c1ccccc1)c1ccccc1)C(=O)OCC`, the figure is 40.1 µM; as for `CC1=CC(O)(c2ccc(-c3ccccc3Cl)cc2)OC1=O` (stereo not given), over 100 µM.
On the same count and under the same terms, as for `C/C(=N\NC(=S)NC(CCC(=O)O)C(=O)O)c1ccccn1` (stereo not given), the figure is over 100 µM.
As for `Cc1ccc(NC(=O)c2cc3cc(N=Nc4ccccc4C(=O)O)ccc3oc2=O)cc1`, the TGI came to 94.3 µM.
Same read-out and setting: as for `COc1ccc(S(=O)(=O)NNS(C)(=O)=O)cc1`, the figure is over 100 µM; as for `CC(=O)/C(=C\c1cccc([N+](=O)[O-])c1)C(=O)Nc1ccccc1C`, over 100 µM; as for `CCN1c2ccccc2C(C(SC)S(=O)(=O)c2ccc(C)cc2)c2c1[nH]c(=O)n(C)c2=O` (stereo not given), over 100 µM.
On the same count and under the same terms, the result for `COC(OC)C(C)CC(=O)N(C)C` (stereo not given) reads over 100 µM.

A further assay relates to RXF-631 renal. Description: DTP human tumour cell line panel, 48 h.
With `CC(C)=Cc1cc(C(=O)Nc2ccc(Cl)c(Cl)c2)nc(N)n1`, the TGI was over 100 µM.
With `CCCCCCCCC/C=C1\CCC(CN2CCOCC2)C1=O` (stereo not given), the TGI came out at 18.2 µM.
Same read-out and setting: as for `CC(=O)OC1COC(n2ccc3cc(Br)c([N+](=O)[O-])cc32)C(OC(C)=O)C1OC(C)=O` (stereo not given), the figure is 58.8 µM; as for `CCOC(=O)NC(=O)c1cn(CCCO)c(=O)[nH]c1=O`, over 100 µM.
Same read-out and setting: as for `CN(C)c1nc(=Nc2ccc(N=c3nc(N(C)C)ss3)cc2)ss1`, the figure is 38.8 µM.
Still for that read-out and setting: as for `CSc1nc(NC2OCC(OC(C)=O)C(OC(C)=O)C2OC(C)=O)c(N=CC=Nc2c(NC3OCC(OC(C)=O)C(OC(C)=O)C3OC(C)=O)nc(SC)[nH]c2=O)c(=O)[nH]1` (stereo not given), the figure is over 100 µM.
The compound `c1ccc(COc2cccc3ccc[n+](Cc4ccccc4)c23)cc1` gave a TGI of over 100 µM.
Same read-out and setting: the result for `O=S1(=O)OCCOS(=O)(=O)C1Br` reads over 100 µM.
Same read-out and setting: the result for `CCOC(=O)C(=C=C=C(c1ccccc1)c1ccccc1)C(=O)OCC` reads 77 µM; that for `CC1=CC(O)(c2ccc(-c3ccccc3Cl)cc2)OC1=O` (stereo not given), over 100 µM.
Same read-out and setting: as for `CC(C)(C)OC(=O)N[C@H]1CC2(C=C(Cl)C(=O)C(Cl)=C2)OC1=O`, the figure is 30.5 µM; as for `C/C(=N\NC(=S)NC(CCC(=O)O)C(=O)O)c1ccccn1` (stereo not given), over 100 µM.
In the case of `COc1ccc(S(=O)(=O)NNS(C)(=O)=O)cc1`, the TGI is over 100 µM.
The same measure, in the same setting: as for `O=C(/C=C\c1ccc(Cl)c(Cl)c1)c1ccc(Cl)cc1Cl`, the figure is over 100 µM.

For the next assay, the system named is XF 498 CNS. Description: DTP human tumour cell line panel, 48 h.
Consider `O=c1cc(-c2ccccc2)oc2cc(OCCCOc3ccc4c(=O)cc(-c5ccccc5)oc4c3)ccc12`, for which the TGI is over 100 µM.
`Clc1ccc(C(c2ccc(Cl)cc2)c2ccccn2)cc1` returned a TGI of 34.8 µM.
